Test results from ChEMBL document CHEMBL1201862, “PubChem BioAssay data set” (2004).
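Each compound was tested at five concentrations against cells in 96-well plates for 48 hours. Abbreviation: GI50, concentration required for 50% inhibition of growth.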 The source made the active and inactive calls. Cut-off read from the data, not from the text of the source: active = GI50 up to about 1.1 µM and inactive = higher.

Legend:
Assay in all cases: growth of human tumour cells (NCI), 48 h
A498 = test system: A498
CCRF-CEM = test system: CCRF-CEM
EKVX = test system: EKVX
HOP-62 = test system: HOP-62
K562 = test system: K562
KM12 = test system: KM12
M14 = test system: M14
MDA-MB-231 = test system: MDA-MB-231
NCI-H23 = test system: NCI-H23
NCI-H522 = test system: NCI-H522
OVCAR-4 = test system: OVCAR-4
OVCAR-5 = test system: OVCAR-5
RXF 393 = test system: RXF 393
SF-268 = test system: SF-268
SK-MEL-28 = test system: SK-MEL-28
SNB-75 = test system: SNB-75
SR = test system: SR
U-251 = test system: U-251
UACC-62 = test system: UACC-62
UO-31 = test system: UO-31

Compound | GI50 (A498) | GI50 (CCRF-CEM) | GI50 (EKVX) | GI50 (HOP-62) | GI50 (K562) | GI50 (KM12) | GI50 (M14) | GI50 (MDA-MB-231) | GI50 (NCI-H23) | GI50 (NCI-H522) | GI50 (OVCAR-4) | GI50 (OVCAR-5) | GI50 (RXF 393) | GI50 (SF-268) | GI50 (SK-MEL-28) | GI50 (SNB-75) | GI50 (SR) | GI50 (U-251) | GI50 (UACC-62) | GI50 (UO-31)
C1CCN2CC34CC(CC5CCCN(C6CCCC3N6)C54)C2C1 (stereo unspecified) | > 100 µM (inactive) | > 100 µM (inactive) | > 100 µM (inactive) | > 100 µM (inactive) | > 100 µM (inactive) | > 100 µM (inactive) | > 100 µM (inactive) | > 100 µM (inactive) | > 100 µM (inactive) | > 100 µM (inactive) | > 100 µM (inactive) | > 100 µM (inactive) | 78.9 µM (inactive) | > 100 µM (inactive) | > 100 µM (inactive) | > 100 µM (inactive) | > 100 µM (inactive) | > 100 µM (inactive) | > 100 µM (inactive) | 
O=C1C(Cl)=C(N2CCN(CCOCCO)CC2)C(=O)c2ccccc21 | 18.5 µM (inactive) | 2.33 µM (inactive) | 18.4 µM (inactive) |  | 2.2 µM (inactive) | 16.3 µM (inactive) | 9.29 µM (inactive) | 4.43 µM (inactive) | 13.6 µM (inactive) | 1.77 µM (inactive) | 2.19 µM (inactive) | 22.4 µM (inactive) | 3.13 µM (inactive) | 16.4 µM (inactive) | 17.3 µM (inactive) | 14.2 µM (inactive) | 2.72 µM (inactive) | 17.3 µM (inactive) | 6.32 µM (inactive) | 7.73 µM (inactive)
CCN(CC)Cc1ccccc1CC(=O)N1c2ccccc2C(=O)Nc2cccnc21 | > 100 µM (inactive) | 33.7 µM (inactive) | > 100 µM (inactive) | 64 µM (inactive) | 79.6 µM (inactive) | > 100 µM (inactive) | > 100 µM (inactive) | > 100 µM (inactive) | > 100 µM (inactive) | > 100 µM (inactive) | > 100 µM (inactive) | > 100 µM (inactive) | > 100 µM (inactive) | > 100 µM (inactive) | > 100 µM (inactive) |  | 34.3 µM (inactive) | > 100 µM (inactive) | > 100 µM (inactive) | 
Cc1cn(C2CC(O)C(Cn3nncc3Cn3nc(Br)c(=O)[nH]c3=O)O2)c(=O)[nH]c1=O (stereo unspecified) | > 100 µM (inactive) | > 100 µM (inactive) | > 100 µM (inactive) | > 100 µM (inactive) |  | > 100 µM (inactive) | > 100 µM (inactive) | > 100 µM (inactive) | > 100 µM (inactive) | > 100 µM (inactive) | > 100 µM (inactive) | > 100 µM (inactive) | > 100 µM (inactive) | > 100 µM (inactive) | > 100 µM (inactive) |  | > 100 µM (inactive) | > 100 µM (inactive) | > 100 µM (inactive) | > 100 µM (inactive)
N#CC1=C(S)N(C2OC(CO)C(O)C(O)C2O)C(c2ccccc2)=CC1c1ccccc1 (stereo unspecified) | 59.3 µM (inactive) | 37.2 µM (inactive) |  | > 100 µM (inactive) | 30.1 µM (inactive) | 66.1 µM (inactive) | 37.5 µM (inactive) | 64.3 µM (inactive) | > 100 µM (inactive) | 50.6 µM (inactive) | 75.9 µM (inactive) | > 100 µM (inactive) | 25.2 µM (inactive) | 56.5 µM (inactive) | 45 µM (inactive) | 31.9 µM (inactive) | 35 µM (inactive) | 43 µM (inactive) | 21.7 µM (inactive) | > 100 µM (inactive)
COc1ccc(CC2NC(=O)/C=C/CC(C(C)C3OC3c3ccccc3)OC(=O)C(CC(C)C)OC(=O)C(C)CNC2=O)cc1Cl (stereo unspecified) | < 1e-05 µM (active) | < 1e-05 µM (active) |  | 1.76e-05 µM (active) | < 1e-05 µM (active) | < 1e-05 µM (active) | 1.04e-05 µM (active) | 1.47e-05 µM (active) | 2.07e-05 µM (active) | < 1e-05 µM (active) |  |  | < 1e-05 µM (active) | 4.55e-05 µM (active) | 2.43e-05 µM (active) | 2.83e-05 µM (active) | < 1e-05 µM (active) | 2.56e-05 µM (active) | 1.1e-05 µM (active) | 
COc1cccc(C2c3cc4c(cc3OC(NNC(N)=O)C2C)OCO4)c1OC (stereo unspecified) | 18.2 µM (inactive) | 24.7 µM (inactive) | 26.7 µM (inactive) | 22 µM (inactive) | 19.5 µM (inactive) | 23.2 µM (inactive) | 17.1 µM (inactive) | 31.7 µM (inactive) | 30.8 µM (inactive) | 20.4 µM (inactive) |  | 34.1 µM (inactive) | 14.1 µM (inactive) | 27.7 µM (inactive) | 21.4 µM (inactive) | 15.8 µM (inactive) | 0.431 µM (active) | 20 µM (inactive) | 22.3 µM (inactive) | 25.6 µM (inactive)
COc1c2cc(C(C)(C)C)cc1Cc1cccc(c1OCc1cccc([N+](=O)[O-])c1)Cc1cc(C(C)(C)C)cc(c1OC)Cc1cccc(c1OCc1cccc([N+](=O)[O-])c1)Cc1cc(C(C)(C)C)cc(c1OC)Cc1cccc(c1OCc1cccc([N+](=O)[O-])c1)C2 | > 50 µM (inactive) | > 5 µM (inactive) | > 50 µM (inactive) | > 50 µM (inactive) | > 50 µM (inactive) | > 50 µM (inactive) | > 50 µM (inactive) | > 50 µM (inactive) | > 50 µM (inactive) | > 50 µM (inactive) |  | > 50 µM (inactive) | > 50 µM (inactive) | > 50 µM (inactive) | > 50 µM (inactive) | 23.3 µM (inactive) | > 50 µM (inactive) | > 50 µM (inactive) | > 50 µM (inactive) | > 50 µM (inactive)
c1ccc(/N=c2/[nH]c3ccccc3s/c2=N/c2ccccc2)cc1 | > 100 µM (inactive) | > 100 µM (inactive) | > 100 µM (inactive) | > 100 µM (inactive) | > 100 µM (inactive) | 73.8 µM (inactive) |  | > 100 µM (inactive) | > 100 µM (inactive) | 26.3 µM (inactive) | > 100 µM (inactive) | > 100 µM (inactive) | 48.4 µM (inactive) | > 100 µM (inactive) | > 100 µM (inactive) | > 100 µM (inactive) | > 100 µM (inactive) | > 100 µM (inactive) | > 100 µM (inactive) | > 100 µM (inactive)
COC(=O)[C@H](Cc1c[nH]c2ccccc12)NC(=O)c1ccc(CNC(=O)/C=C/c2cccc(Oc3ccccc3)c2)cc1 | > 100 µM (inactive) | 56.1 µM (inactive) | > 100 µM (inactive) | > 100 µM (inactive) | 63.5 µM (inactive) | > 100 µM (inactive) | 23.2 µM (inactive) | > 100 µM (inactive) | 52.6 µM (inactive) |  | 19.5 µM (inactive) | > 100 µM (inactive) | 7.73 µM (inactive) | > 100 µM (inactive) | 29.2 µM (inactive) | 79.1 µM (inactive) | 22.4 µM (inactive) | > 100 µM (inactive) | 36.1 µM (inactive) | > 100 µM (inactive)
CCC/C=C/C=C/C(=O)OC1C(C)C2(O)C3C=C(C)C(=O)C3CC(COC(C)=O)=CC2C2C(C)(C)C12OC(=O)C(C)C (stereo unspecified) | 1.66 µM (inactive) | 0.137 µM (active) | 19.4 µM (inactive) | 0.0438 µM (active) | 0.091 µM (active) | 16.9 µM (inactive) | 14.1 µM (inactive) | 3.92 µM (inactive) | 12.8 µM (inactive) | 13.4 µM (inactive) | 22.9 µM (inactive) | 26.1 µM (inactive) | 17.5 µM (inactive) | 13.8 µM (inactive) | 13 µM (inactive) | 10.3 µM (inactive) | 10.7 µM (inactive) |  | 11.2 µM (inactive) | 15.4 µM (inactive)
COc1ccc(-n2c(SC(CN3CCOCC3)CN3CCCC3=O)nc3ccccc3c2=O)cc1 (stereo unspecified) | > 100 µM (inactive) | 67.5 µM (inactive) | > 100 µM (inactive) |  | > 100 µM (inactive) | > 100 µM (inactive) | > 100 µM (inactive) | > 100 µM (inactive) | 96.4 µM (inactive) | > 100 µM (inactive) | 98.6 µM (inactive) | > 100 µM (inactive) | > 100 µM (inactive) | > 100 µM (inactive) | 82.6 µM (inactive) | 70.8 µM (inactive) | > 100 µM (inactive) | > 100 µM (inactive) | > 100 µM (inactive) | 35.6 µM (inactive)
N=c1c2c(=S)n(-c3ccccc3)c(=S)n(-c3ccccc3)c2nc(SCCN2CCOCC2)n1-c1ccccc1 | 3.52 µM (inactive) | 1.38 µM (inactive) | 3.16 µM (inactive) | 2.12 µM (inactive) | 1.47 µM (inactive) | 2.44 µM (inactive) | 1.93 µM (inactive) | 2.12 µM (inactive) | 2.67 µM (inactive) | 1.67 µM (inactive) | 1.76 µM (inactive) | 18.4 µM (inactive) | 1.79 µM (inactive) | 1.79 µM (inactive) | 2.1 µM (inactive) | 2.07 µM (inactive) | 0.475 µM (active) | 1.99 µM (inactive) | 1.81 µM (inactive) | 
O=C1CC(O)c2c(Br)sc(Br)c21 (stereo unspecified) | 19.9 µM (inactive) | 0.728 µM (active) | 10.4 µM (inactive) | 10.6 µM (inactive) | 2.8 µM (inactive) | 7.48 µM (inactive) | 13.9 µM (inactive) | 15.2 µM (inactive) | 22.7 µM (inactive) | 8.28 µM (inactive) |  | 21.3 µM (inactive) | 2.5 µM (inactive) | 18.1 µM (inactive) | 15.7 µM (inactive) | 16 µM (inactive) | 5.25 µM (inactive) | 4.54 µM (inactive) | 13.4 µM (inactive) | 2.61 µM (inactive)
